Results: ChEMBL document CHEMBL4616582, “Green recipes to quinoline: A review” (Eur J Med Chem, 2019)
Converted amounts (≈) assume the structure as drawn.

Tests used:
[1] = test system: Leishmania donovani; test: Antileishmanial activity against Leishmania donovani promastigotes; assay type: functional, organism-based
[2] = test system: Leishmania donovani; test: Antileishmanial activity against Leishmania donovani amastigotes; assay type: functional, organism-based
[3] = test system: Plasmodium falciparum; test: Antimalarial activity against chloroquine and quinine sensitive Plasmodium falciparum; assay type: functional, organism-based
[4] = test system: HepG2; test: Cytotoxicity against human HepG2 cells assessed as reduction in cell viability by MTT assay; assay type: functional, cell-based

CSC(=S)/C=C(\O)c1ccccc1
IC50 [1]: 1.34 to 3.26 µg/mL (≈ 6.37 to 15.5 µM)
IC50 [2]: 1.34 to 3.26 µg/mL (≈ 6.37 to 15.5 µM)

Cc1nn(-c2ccccc2)c(Oc2ccccc2F)c1C1C(C#N)=C(N)N(Nc2ccc(Br)cc2)C2=C1C(=O)CC(C)(C)C2 (configuration not stated)
IC50 [3]: 0.042 to 0.09 µg/mL (≈ 0.0643 to 0.138 µM)

C=C[C@H]1CN2CC[C@H]1C[C@H]2[C@H](O)c1ccnc2ccc(OC)cc12 [QUININE]
IC50 [3]: 0.268 µg/mL (≈ 0.826 µM)

Cc1nn(-c2ccccc2)c(Oc2cccc(F)c2)c1C1C(C#N)=C(N)N(Nc2ccc(Br)cc2)C2=C1C(=O)CC(C)(C)C2 (configuration not stated)
IC50 [3]: 0.042 to 0.09 µg/mL (≈ 0.0643 to 0.138 µM)

Cc1nn(-c2ccccc2)c(Oc2ccc(F)cc2)c1C1C(C#N)=C(N)N(Nc2ccc(Br)cc2)C2=C1C(=O)CC(C)(C)C2 (configuration not stated)
IC50 [3]: 0.042 to 0.09 µg/mL (≈ 0.0643 to 0.138 µM)

Cc1nn(-c2ccccc2)c(Oc2cccc(C(F)(F)F)c2)c1C1C(C#N)=C(N)N(Nc2ccc(Br)cc2)C2=C1C(=O)CC(C)(C)C2 (configuration not stated)
IC50 [3]: 0.042 to 0.09 µg/mL (≈ 0.0597 to 0.128 µM)

CSC(=S)/C=C(\O)c1ccccc1Cl
IC50 [1]: 1.34 to 3.26 µg/mL (≈ 5.47 to 13.3 µM)
IC50 [2]: 1.34 to 3.26 µg/mL (≈ 5.47 to 13.3 µM)

Cc1nn(-c2ccccc2)c(Oc2cccc(F)c2)c1C1C(C#N)=C(N)N(Nc2ccccc2)C2=C1C(=O)CC(C)(C)C2 (configuration not stated)
IC50 [3]: 0.042 to 0.09 µg/mL (≈ 0.0731 to 0.157 µM)

Cc1nn(-c2ccccc2)c(Oc2ccc(F)cc2)c1C1C(C#N)=C(N)N(Nc2ccccc2)C2=C1C(=O)CC(C)(C)C2 (configuration not stated)
IC50 [3]: 0.042 to 0.09 µg/mL (≈ 0.0731 to 0.157 µM)

Cc1nn(-c2ccccc2)c(Oc2cccc(C(F)(F)F)c2)c1C1C(C#N)=C(N)N(Nc2ccccc2)C2=C1C(=O)CC(C)(C)C2 (configuration not stated)
IC50 [3]: 0.042 to 0.09 µg/mL (≈ 0.0672 to 0.144 µM)

Nc1ccc(Cl)cc1C(=O)c1ccccc1
IC50 [1]: 1.34 to 3.26 µg/mL (≈ 5.78 to 14.1 µM)
IC50 [2]: 1.34 to 3.26 µg/mL (≈ 5.78 to 14.1 µM)

CSC(=S)/C=C(\O)c1ccc(C)cc1
IC50 [1]: 1.34 to 3.26 µg/mL (≈ 5.97 to 14.5 µM)
IC50 [2]: 1.34 to 3.26 µg/mL (≈ 5.97 to 14.5 µM)

Cc1nn(-c2ccccc2)c(Oc2cccc(F)c2)c1C1C(C#N)=C(N)N(Nc2ccc(F)cc2)C2=C1C(=O)CC(C)(C)C2 (configuration not stated)
IC50 [3]: 0.042 to 0.09 µg/mL (≈ 0.0709 to 0.152 µM)

CSC(=S)/C=C(\O)c1ccc(C(F)(F)F)cc1
IC50 [1]: 1.34 to 3.26 µg/mL (≈ 4.81 to 11.7 µM)
IC50 [2]: 1.34 to 3.26 µg/mL (≈ 4.81 to 11.7 µM)

COc1ccc(NN2C(N)=C(C#N)C(c3c(C)nn(-c4ccccc4)c3Oc3ccccc3F)C3=C2CC(C)(C)CC3=O)cc1 (configuration not stated)
IC50 [3]: 0.042 to 0.09 µg/mL (≈ 0.0695 to 0.149 µM)

CSC(=S)/C=C(\O)c1cccs1
IC50 [1]: 1.34 to 3.26 µg/mL (≈ 6.19 to 15.1 µM)
IC50 [2]: 1.34 to 3.26 µg/mL (≈ 6.19 to 15.1 µM)

CCCCCCCCCCCCCCCCOP(=O)([O-])OCC[N+](C)(C)C [MILTEFOSINE]
IC50 [1]: 4.54 µg/mL (≈ 11.1 µM)
IC50 [2]: 8.2 µg/mL (≈ 20.1 µM)

COc1ccc(NN2C(N)=C(C#N)C(c3c(C)nn(-c4ccccc4)c3Oc3cccc(C(F)(F)F)c3)C3=C2CC(C)(C)CC3=O)cc1 (configuration not stated)
IC50 [3]: 0.042 to 0.09 µg/mL (≈ 0.0642 to 0.137 µM)

Cc1nn(-c2ccccc2)c(Oc2ccc(F)cc2)c1C1C(C#N)=C(N)N(Nc2ccc(F)cc2)C2=C1C(=O)CC(C)(C)C2 (configuration not stated)
IC50 [3]: 0.042 to 0.09 µg/mL (≈ 0.0709 to 0.152 µM)

COc1ccc(/C(O)=C/C(=S)SC)cc1
IC50 [1]: 1.34 to 3.26 µg/mL (≈ 5.58 to 13.6 µM)
IC50 [2]: 1.34 to 3.26 µg/mL (≈ 5.58 to 13.6 µM)

COc1ccc(NN2C(N)=C(C#N)C(c3c(C)nn(-c4ccccc4)c3Oc3cccc(F)c3)C3=C2CC(C)(C)CC3=O)cc1 (configuration not stated)
IC50 [3]: 0.042 to 0.09 µg/mL (≈ 0.0695 to 0.149 µM)

Cc1nn(-c2ccccc2)c(Oc2ccccc2F)c1C1C(C#N)=C(N)N(Nc2ccccc2)C2=C1C(=O)CC(C)(C)C2 (configuration not stated)
IC50 [3]: 0.042 to 0.09 µg/mL (≈ 0.0731 to 0.157 µM)

CSC(=S)/C=C(\O)c1cccc(C)c1
IC50 [1]: 1.34 to 3.26 µg/mL (≈ 5.97 to 14.5 µM)
IC50 [2]: 1.34 to 3.26 µg/mL (≈ 5.97 to 14.5 µM)

CC(=O)c1cc(F)c(Cl)cc1Cl
IC50 [4]: 0.984 µM

Nc1ccccc1C(=O)c1ccccc1
IC50 [1]: 1.34 to 3.26 µg/mL (≈ 6.79 to 16.5 µM)
IC50 [2]: 1.34 to 3.26 µg/mL (≈ 6.79 to 16.5 µM)

Cc1nn(-c2ccccc2)c(Oc2ccccc2F)c1C1C(C#N)=C(N)N(Nc2ccc(Cl)cc2)C2=C1C(=O)CC(C)(C)C2 (configuration not stated)
IC50 [3]: 0.042 to 0.09 µg/mL (≈ 0.069 to 0.148 µM)

Cc1nn(-c2ccccc2)c(Oc2cccc(C(F)(F)F)c2)c1C1C(C#N)=C(N)N(Nc2ccc(F)cc2)C2=C1C(=O)CC(C)(C)C2 (configuration not stated)
IC50 [3]: 0.042 to 0.09 µg/mL (≈ 0.0654 to 0.14 µM)

O=c1c2ccc(Br)cc2n(-c2ccccc2)c2ss/c(=N\c3ccccc3)c12
IC50 [4]: 0.984 µM

CSC(=S)/C=C(\O)c1ccco1
IC50 [1]: 1.34 to 3.26 µg/mL (≈ 6.69 to 16.3 µM)
IC50 [2]: 1.34 to 3.26 µg/mL (≈ 6.69 to 16.3 µM)

Cc1nn(-c2ccccc2)c(Oc2ccccc2F)c1C1C(C#N)=C(N)N(Nc2ccc(F)cc2)C2=C1C(=O)CC(C)(C)C2 (configuration not stated)
IC50 [3]: 0.042 to 0.09 µg/mL (≈ 0.0709 to 0.152 µM)

O=c1c2c(Cl)cccc2n(-c2ccccc2)c2ss/c(=N\c3ccccc3)c12
IC50 [4]: 0.984 µM
